Results from patent publication US12691076B2, “Methods and compositions related to extracellular vesicles” (priority 2020, dated 2026).
Like-named read-outs stand apart in the source and are kept apart here.

Assay: Plasma and tissue concentrations of efavirenz after tail vein injection
Assay type: in vivo, CD-1 mice
Conditions: mice, 5 mg/kg tail vein; for concentration at […]: 0.25 h
Procedure: The efavirenz-loaded apical AVT-EVs were subsequently injected via tail vein into CD-1 mice at a dose of 5 mg/kg and compared to a control injection of 5 mg/kg of conventional efavirenz (dissolved with DMSO). Plasma and tissue concentrations were determined by LC-MS/MS.

[1] = CD-1, mouse, liver, intravenous, LLOQ 35 ng/g, read-out: Efavirenz concentration, Liver
[2] = CD-1, mouse, lung, intravenous, LLOQ 35 ng/g, read-out: Efavirenz concentration, Lungs
[3] = CD-1, mouse, plasma, intravenous, read-out: Efavirenz concentration, Plasma

O=C1Nc2ccc(Cl)cc2[C@@](C#CC2CC2)(C(F)(F)F)O1 [Efavirenz in DMSO, efavirenz]
concentration at 0.083 h [1]: 7590 ng/g
concentration at […] [1]: 5420 ng/g
concentration at 0.5 h [1]: 5230 ng/g
concentration at 1 h [1]: 176 ng/g
concentration at 2 h [1]: 135 ng/g
concentration at 3 h (CD-1, mouse, liver, intravenous, 3 h, LLOQ 35 ng/g, read-out: Efavirenz concentration, Liver): 136 ng/g
concentration at 4 h (CD-1, mouse, liver, intravenous, 4 h, LLOQ 35 ng/g, read-out: Efavirenz concentration, Liver): 137 ng/g
concentration at 6 h (CD-1, mouse, liver, intravenous, 6 h, LLOQ 35 ng/g, read-out: Efavirenz concentration, Liver): 115 ng/g
concentration at 0.083 h [2]: 2140 ng/g
concentration at […] [2]: 802 ng/g
concentration at 0.5 h [2]: 830 ng/g
concentration at 1 h [2]: 273 ng/g
concentration at 0.083 h [3]: 4100 ng/mL
concentration at […] [3]: 2820 ng/mL
concentration at 0.5 h [3]: 1620 ng/mL
concentration at 1 h [3]: 1560 ng/mL
concentration at 2 h [3]: 724 ng/mL
concentration at 3 h (CD-1, mouse, plasma, intravenous, 3 h, read-out: Efavirenz concentration, Plasma): 396 ng/mL
concentration at 4 h (CD-1, mouse, plasma, intravenous, 4 h, read-out: Efavirenz concentration, Plasma): 103 ng/mL
concentration at 6 h (CD-1, mouse, plasma, intravenous, 6 h, read-out: Efavirenz concentration, Plasma): 64.4 ng/mL
concentration at 8 h (CD-1, mouse, plasma, intravenous, 8 h): 33.1 ng/mL
AUC(0-t) (CD-1, mouse, plasma, intravenous, read-out: area under the plasma-time concentration curve (AUC0-8h) of efavirenz): 4520 ng·h/mL
AUC0-8h for efavirenz in the lungs: 0.95 µg·h/g
lung:liver tissue AUC0-8h ratio: 0.19
overall exposure of the liver relative to the lungs: approximately 5 times
Efavirenz concentration, Lungs (3 h, LLOQ 35 ng/g): <LLOQ
Efavirenz concentration, Lungs (4 h, LLOQ 35 ng/g): <LLOQ
Efavirenz concentration, Lungs (6 h, LLOQ 35 ng/g): <LLOQ
Efavirenz concentration, Liver (8 h, LLOQ 35 ng/g): <LLOQ
Efavirenz concentration, Lungs (8 h, LLOQ 35 ng/g): <LLOQ
